# Laboratory results: patent publication US20250115943A1, “SYSTEM AND METHOD FOR ANTIMICROBIAL SUSCEPTIBILITY TESTING” (priority 2023, published 2025)
# Where two headings read alike, the source gives them in different places.
# Columns and labels:
# S. aureus ATCC 29213 [1] = conditions: CLSI M100-Ed34E, cited from earlier work
# E. coli = conditions: cited from earlier work
# E. coli ATCC 25922 [2] = assay: reference broth microdilution (rBMD); type: cell-based; conditions: Escherichia coli, ATCC25922, Table 7, geometric mean MIC rounded to nearest 2-fold dilution, n = 3
# Description: (§1) Following optimization of the BLAST assay, two other tests were performed in which 12 antibiotics (covering different classes) and 8 bacterial strains (Gram-positive and Gram-negative) were assayed using the same method as described above. Different bacterial strains were tested against different antibiotics and for each pair tested, the BLAST MIC value was compared to the CLSI QC range where available, or to the reference broth microdilution (rBMD) MIC which was determined in parallel with the BLAST assay following the CLSI protocols (see references [9]).
# The inoculated urine cultures were incubated overnight at 35+2° C. Each urine culture was centrifuged, and the sediment used to prepare the BLAST inoculum of 5.0×10^5 CFU/mL to start the assay as described in the protocols section. […] The spiked urine samples were tested in parallel with isolates and the resultant BLAST MIC values were compared. In addition to the BLAST test, all the samples were also tested using the reference broth microdilution (rBMD) method and the MIC values were compared.
# K. pneumoniae LSI 4552 [3] = assay: CytoSPAR BLAST antibiotic susceptibility test; type: cell-based
# Text: (§2) The disclosed technology, which is referred to as the CytoSPAR BLAST (Bacteria Labeling Antibiotic Susceptibility Test) system, is used to quantitatively assess bacterial minimal inhibitory concentration of antibiotics for in vitro susceptibility testing. Used as an aid in diagnosis for clinicians in determining potential treatment options for patients suspected of having a microbial infection, BLAST is intended to determine susceptibility of microorganisms to the listed antibiotics (or other antimicrobials) according to manufacturer's standards. The system is intended for use with clinical isolates from liquid culture and colonies grown on agar (solid medium) or directly from urine samples. Certain implementations of BLAST determine antibiotic susceptibility for a wide range of bacteria obtained from various types of patient samples, including samples from individuals suffering from urinary tract infections. The disclosed technology includes a high-throughput assay that directly detects bacterial susceptibility to a library of frequently used antibiotics and covers both Gram-negative and Gram-positive bacteria.
# (§3) The test incorporates a non-canonical amino acid (ncAA) into newly produced proteins. The incorporated ncAA includes a reactive group which allows a specific modification and detection of the living bacteria. The assay involves bacterial incorporation of the ncAA, a chemical reaction between a reactive group and a fluorophore-tagged ligand, and detection of the newly fluorescent-tagged bacteria using a fluorescent plate reader or functionally similar device. The ncAA is added to bacterial growth media and is incorporated into newly synthesized bacterial proteins. The reactive groups on the ncAA are not naturally found in bacteria and act as a specific reactive group for bacteria undergoing active protein synthesis. […] The entire process is performed in a microtiter filter plate for high-throughput scale-up. Alternatively, a normal 96-well plate can also be used in which case centrifugation is used to wash the plate instead of filtration.
# (§4) In an example embodiment, bacterial samples are first diluted and incubated in acclimatization media. After treatment with one or more antimicrobials, the ncAA is added and is taken up by living bacteria during protein biosynthesis in a process called labeling. […] The Click-Chemistry reaction between the alkyne group of the ncAA and the azide group of the fluorophore-tagged ligand requires the presence of copper in the reduced state-copper (I). In other implementations, the functional groups of the click chemistry reaction can be changed so that the ncAA has the azide group and the dye has the alkyne group. […] Other reducing agents may be used in the BLAST assay, for example, aldoses (sugars) including glyceraldehyde, glucose, and ribose to replace sodium ascorbate. Likewise, alternate chelators may be used (e.g., histidine in place of BTTAA). In some implementations, metal-free click chemistry reactions are performed without using copper.
# (§5) Using the BLAST system, tests can be performed on isolates or direct urine samples. Isolates may be from urine, blood, or other body fluids. Isolated bacteria may be either Gram-positive or Gram-negative. In an example implementation, living bacterial samples in acclimatization media (Buffer A) are distributed in a microtiter filter plate, wherein certain predetermined wells include antibiotics of interest at different concentrations. These antibiotics are arrayed with increasing concentrations in adjacent wells so that the bacterial response can be measured against each specific concentration. The response is measured quantitatively, and a value that corresponds to the ability of the bacteria to metabolize and grow is measured.
# S. aureus ATCC 29213 [4] = assay: CytoSPAR BLAST antibiotic susceptibility test; type: cell-based; conditions: for S, I, R: susceptible, intermediate, resistant category; for MIC: Staphylococcus aureus
# Text: as §2, §3, §4, §5
# K. pneumoniae LSI CT1045 [5] = assay: CytoSPAR BLAST antibiotic susceptibility test; type: cell-based
# Text: as §2, §3, §4, §5
# E. coli LSI 770 = assay: CytoSPAR BLAST antibiotic susceptibility test; type: cell-based; conditions: E. coli LSI 770; for MIC: Escherichia coli, LSI770
# Text: as §2, §3, §4, §5
# P. aeruginosa ATCC 27853 [6] = assay: CytoSPAR BLAST antibiotic susceptibility test; type: cell-based; conditions: for S, I, R: susceptible, intermediate, resistant category
# Text: as §2, §3, §4, §5
# P. mirabilis LSI 4698 = assay: CytoSPAR BLAST antibiotic susceptibility test; type: cell-based
# Text: as §2, §3, §4, §5
# E. coli ATCC 25922 [7] = assay: CytoSPAR BLAST antibiotic susceptibility test; type: cell-based; conditions: for MIC: Escherichia coli; for S, I, R: susceptible, intermediate, resistant category
# Text: as §2, §3, §4, §5
# P. mirabilis LSI 4933 [8] = assay: CytoSPAR BLAST antibiotic susceptibility test; type: cell-based
# Text: as §2, §3, §4, §5
# P. aeruginosa ATCC 27853 [9] = conditions: CLSI M100-Ed34E; cited from earlier work
# K. pneumoniae LSI 4552 [10] = assay: reference broth microdilution (rBMD); type: cell-based; conditions: Klebsiella pneumoniae, LSI4552
# Description: as §1
# K. pneumoniae LSI CT1045 [11] = assay: reference broth microdilution (rBMD); type: cell-based; conditions: Klebsiella pneumoniae, LSICT1045
# Description: as §1
# P. mirabilis LSI 4933 [12] = assay: reference broth microdilution (rBMD); type: cell-based; conditions: Proteus mirabilis, LSI4933
# Description: as §1
# [13] = system: E. coli, S. saprophyticus and S. aureus; conditions: for E. coli, S. saprophyticus and S. aureus as reported by the FDA and CLSI (Table 5); cited from earlier work
# S. saprophyticus = conditions: cited from earlier work
# [14] = system: E. coli strain #551 (CDC); conditions: strain designation, not a BLAST readout; cited from earlier work
# E. coli strain #14 (CDC) [15] = conditions: strain designation, not a BLAST readout; cited from earlier work
# E. coli ATCC 25922 [16] = conditions: E. coli strain #25922 (ATCC); strain designation, not a BLAST readout; cited from earlier work
# E. coli strain #14 (CDC) [17] = assay: microbe, parasite or virus in culture; conditions: Escherichia coli, read-out: BLAST MIC
# Text: (§6) The disclosed technology, which is referred to as the CytoSPAR BLAST (Bacteria Labeling Antibiotic Susceptibility Test) system, is used to quantitatively assess bacterial minimal inhibitory concentration of antibiotics for in vitro susceptibility testing. Used as an aid in diagnosis for clinicians in determining potential treatment options for patients suspected of having a microbial infection, BLAST is intended to determine susceptibility of microorganisms to the listed antibiotics (or other antimicrobials) according to manufacturer's standards. The system is intended for use with clinical isolates from liquid culture and colonies grown on agar (solid medium) or directly from urine samples. […]
# (§7) The test incorporates a non-canonical amino acid (ncAA) into newly produced proteins. […] The assay involves bacterial incorporation of the ncAA, a chemical reaction between a reactive group and a fluorophore-tagged ligand, and detection of the newly fluorescent-tagged bacteria using a fluorescent plate reader or functionally similar device. […]
# (§8) Using the BLAST system, tests can be performed on isolates or direct urine samples. […] These antibiotics are arrayed with increasing concentrations in adjacent wells so that the bacterial response can be measured against each specific concentration. […]
# [18] = system: E. coli strain #551 (CDC); assay: microbe, parasite or virus in culture; conditions: Escherichia coli, read-out: BLAST MIC, E. coli resistant strain (CDC 551); […]10^8 CFUs/mL; cut-off 0.7; FIG. 11C
# Text: as §6, §7, §8
# [19] = susceptible, intermediate, resistant category
smiles,measurement,setting,value
"C[C@H]1COc2c(N3CCN(C)CC3)c(F)cc3c(=O)c(C(=O)O)cn1c23 [Levofloxacin, levofloxacin]",MIC CLSI QC Range,S. aureus ATCC 29213 [1]; listed as levofloxacin,0.063 to 0.5 µg/mL
same,MIC CLSI QC Range,S. aureus ATCC 29213 [1],0.06 to 0.5 µg/mL
same,breakpoint,E. coli; stated with the CLSI QC range in FIG. 22 legend,0.5 µg/mL
same,MIC,E. coli ATCC 25922 [2],0.02 µg/mL
same,MIC,"K. pneumoniae LSI 4552 [3]; Klebsiella pneumoniae, LSI4552, Table 7",0.06 µg/mL
same,"S, I, R",K. pneumoniae LSI 4552 [3]; [19],Susceptible
same,"S, I, R",S. aureus ATCC 29213 [4]; S. aureus ATCC 29213,Susceptible
same,MIC,"S. aureus ATCC 29213 [4]; ATCC29213, S. aureus ATCC 29213, 5×10^6 CFUs/mL, cutoff 0.8, FIGS. 19-21, read-out: BLAST MIC",0.125 µg/mL
same,MIC,"S. aureus ATCC 29213 [4]; ATCC29213, Table 7, S. aureus ATCC 29213, read-out: MIC BLAST",0.28 µg/mL
same,MIC,"S. aureus ATCC 29213 [4]; ATCC29213, Table 8, S. aureus ATCC 29213, isolates, 5 × 10^5 CFU/mL, read-out: MIC BLAST Isolates",0.28 µg/mL
same,MIC,"S. aureus ATCC 29213 [4]; ATCC29213, Table 8, S. aureus ATCC 29213, spiked urine sample, 5 × 10^5 CFU/mL, read-out: MIC BLAST Spiked Urine",0.28 µg/mL
same,MIC,"K. pneumoniae LSI CT1045 [5]; Klebsiella pneumoniae, LSICT1045, Table 7",> 71 µg/mL
same,"S, I, R",K. pneumoniae LSI CT1045 [5]; [19],Resistant
same,"S, I, R",E. coli LSI 770; [19],Resistant
same,MIC,"E. coli LSI 770; Table 7, read-out: MIC BLAST",36 µg/mL
same,MIC,"E. coli LSI 770; Table 8, isolates, 5 × 10^5 CFU/mL, read-out: MIC BLAST Isolates",35.6 µg/mL
same,MIC,"E. coli LSI 770; Table 8, spiked urine sample, 5 × 10^5 CFU/mL, read-out: MIC BLAST Spiked Urine",35.6 µg/mL
same,MIC,"P. aeruginosa ATCC 27853 [6]; Pseudomonas aeruginosa, ATCC27853, Table 6, optimized BLAST",8 µg/mL
same,"S, I, R",P. aeruginosa ATCC 27853 [6],Susceptible
same,MIC,"P. mirabilis LSI 4698; Proteus mirabilis, LSI4698, Table 7",8.9 µg/mL
same,"S, I, R",P. mirabilis LSI 4698; [19],Susceptible
same,MIC,"E. coli ATCC 25922 [7]; ATCC25922, Table 7, read-out: MIC BLAST",0.01 µg/mL
same,MIC,"E. coli ATCC 25922 [7]; ATCC25922, read-out: MIC BLAST Isolates, Table 8, isolates, 5 × 10^5 CFU/mL",0.01 µg/mL
same,MIC,"E. coli ATCC 25922 [7]; ATCC25922, read-out: MIC BLAST Spiked Urine, Table 8, spiked urine sample, 5 × 10^5 CFU/mL",0.01 µg/mL
same,"S, I, R",E. coli ATCC 25922 [7],Susceptible
same,MIC,"P. mirabilis LSI 4933 [8]; Proteus mirabilis, LSI4933, Table 7",1.1 µg/mL
same,"S, I, R",P. mirabilis LSI 4933 [8]; [19],Susceptible
same,MIC CLSI QC Range,P. aeruginosa ATCC 27853 [9],0.5 to 4.0 µg/mL
same,MIC,K. pneumoniae LSI 4552 [10],0.12 µg/mL
same,MIC,K. pneumoniae LSI CT1045 [11],128 µg/mL
same,MIC,P. mirabilis LSI 4933 [12],1 µg/mL
"O=C1CN(/N=C/c2ccc([N+](=O)[O-])o2)C(=O)N1 [Nitrofurantoin, nitrofurantoin]",CLSI QC range,[13],4 to 16 µg/mL
same,CLSI breakpoint I,S. saprophyticus; intermediate,64 µg/mL
same,FDA breakpoint I,S. saprophyticus; intermediate,64 µg/mL
same,CLSI breakpoint S,S. saprophyticus; susceptible,32 µg/mL
same,FDA breakpoint S,S. saprophyticus; susceptible,32 µg/mL
same,susceptibility of the strain as listed,[14],Resistant
same,susceptibility of the strain as listed,E. coli strain #14 (CDC) [15],Intermediate resistance
same,CLSI breakpoint I,E. coli; intermediate,64 µg/mL
same,FDA breakpoint I,E. coli; intermediate,64 µg/mL
same,CLSI breakpoint S,E. coli; susceptible,32 µg/mL
same,FDA breakpoint S,E. coli; susceptible,32 µg/mL
same,susceptibility of the strain as listed,E. coli ATCC 25922 [16],Susceptible
same,"S, I, R",S. aureus ATCC 29213 [4]; S. aureus ATCC 29213,Susceptible
same,MIC,"S. aureus ATCC 29213 [4]; ATCC29213, S. aureus ATCC 29213, 5×10^5 CFUs/mL, FIG. 15, read-out: BLAST MIC",4 µg/mL
same,MIC,"S. aureus ATCC 29213 [4]; ATCC29213, Table 6, S. aureus ATCC 29213, optimized BLAST, cutoff 0.8, read-out: MIC BLAST",4 µg/mL
same,"S, I, R",P. aeruginosa ATCC 27853 [6],Resistant
same,"S, I, R",E. coli ATCC 25922 [7],Susceptible
same,MIC,E. coli strain #14 (CDC) [17],32 µg/mL
same,MIC,[18],32 µg/mL
